Assay results taken from patent US9399647B2, “Proteasome activity modulating compounds” (Proteostasis Therapeutics, Inc., priority 2012, dated 2016).

target: USP14 (Homo sapiens, UniProt P54578); test: USP14 inhibition assay; assay type: biochemical; details: average value from three experimental determinations; read-out: USP14 IC50
Description: The IC50 values in the Table below represent the average value from three experimental determinations.
These IC50 values represent the average value from three experimental determinations.

USP14, sequence (P54578 whole entry): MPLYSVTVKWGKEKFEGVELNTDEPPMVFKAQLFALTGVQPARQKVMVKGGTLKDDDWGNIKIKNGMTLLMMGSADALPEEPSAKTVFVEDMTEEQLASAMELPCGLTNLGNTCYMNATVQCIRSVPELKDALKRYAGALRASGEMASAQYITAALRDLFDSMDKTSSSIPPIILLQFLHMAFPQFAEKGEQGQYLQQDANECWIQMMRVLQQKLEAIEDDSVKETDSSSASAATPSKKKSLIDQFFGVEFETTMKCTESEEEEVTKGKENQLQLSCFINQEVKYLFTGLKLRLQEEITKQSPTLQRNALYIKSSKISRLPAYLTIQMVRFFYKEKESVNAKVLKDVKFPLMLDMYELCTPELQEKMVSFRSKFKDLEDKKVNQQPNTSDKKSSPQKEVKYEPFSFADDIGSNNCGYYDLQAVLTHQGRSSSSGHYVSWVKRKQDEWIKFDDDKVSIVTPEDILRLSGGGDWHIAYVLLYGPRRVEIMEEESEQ
USP14, sequence (Q13200 whole entry partner): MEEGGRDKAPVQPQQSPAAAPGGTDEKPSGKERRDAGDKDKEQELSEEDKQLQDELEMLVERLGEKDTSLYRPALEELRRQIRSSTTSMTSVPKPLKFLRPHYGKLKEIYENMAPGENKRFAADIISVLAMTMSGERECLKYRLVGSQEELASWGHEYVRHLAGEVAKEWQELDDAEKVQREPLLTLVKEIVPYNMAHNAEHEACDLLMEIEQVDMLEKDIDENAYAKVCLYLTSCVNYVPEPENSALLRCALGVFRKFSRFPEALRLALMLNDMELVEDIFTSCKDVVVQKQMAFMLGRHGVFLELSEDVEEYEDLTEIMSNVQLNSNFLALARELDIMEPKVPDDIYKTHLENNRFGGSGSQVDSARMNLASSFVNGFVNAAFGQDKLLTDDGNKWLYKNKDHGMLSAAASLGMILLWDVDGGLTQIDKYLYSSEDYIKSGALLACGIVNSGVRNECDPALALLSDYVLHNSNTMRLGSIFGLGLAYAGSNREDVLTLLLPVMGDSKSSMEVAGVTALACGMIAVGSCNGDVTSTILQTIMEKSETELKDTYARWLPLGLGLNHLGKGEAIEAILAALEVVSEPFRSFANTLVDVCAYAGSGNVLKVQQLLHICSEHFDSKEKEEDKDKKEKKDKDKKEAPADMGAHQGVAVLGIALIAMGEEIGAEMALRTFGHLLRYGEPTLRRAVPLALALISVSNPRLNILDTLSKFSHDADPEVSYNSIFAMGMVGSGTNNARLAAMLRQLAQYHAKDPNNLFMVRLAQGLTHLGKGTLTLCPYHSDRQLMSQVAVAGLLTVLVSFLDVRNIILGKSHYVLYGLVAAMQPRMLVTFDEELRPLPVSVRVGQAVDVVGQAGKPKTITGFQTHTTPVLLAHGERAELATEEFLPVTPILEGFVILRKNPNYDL
USP14, sequence (P35998 whole entry partner): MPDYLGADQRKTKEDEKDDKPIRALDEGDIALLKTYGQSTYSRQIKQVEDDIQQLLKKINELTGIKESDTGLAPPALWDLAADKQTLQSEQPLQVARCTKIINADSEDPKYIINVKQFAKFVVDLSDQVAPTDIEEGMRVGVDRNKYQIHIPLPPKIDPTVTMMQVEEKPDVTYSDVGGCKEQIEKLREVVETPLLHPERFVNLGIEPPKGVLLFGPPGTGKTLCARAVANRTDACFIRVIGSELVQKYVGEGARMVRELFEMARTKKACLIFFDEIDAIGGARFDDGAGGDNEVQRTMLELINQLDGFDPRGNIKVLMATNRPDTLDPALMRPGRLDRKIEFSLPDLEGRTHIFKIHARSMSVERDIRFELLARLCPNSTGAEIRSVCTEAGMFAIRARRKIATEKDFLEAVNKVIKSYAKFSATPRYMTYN

Molecule CN(C)C(=O)Cc1nc(N(C)C2CC2)c2c3c(sc2n1)CCCC3 [Compound 3, 2-(4-(Cyclopropyl(methyl)amino)-5,6,7,8-tetrahydrobenzo[4,5]thieno[2,3-d]pyrimidin-2-yl)-N,N-dimethylacetamide] has an IC50 of 500 nM.

same assay, conditions: average value from three experimental determinations; reported as potency bands; read-out: IC50 (USP14 inhibition)

CN(c1nc(CC(=O)N2CCC(O)CC2)nc2sc3c(c12)CCCC3)C1CC1 [Compound 27, 2-[4-(Cyclopropyl-methyl-amino)-5,6,7,8-tetrahydro-benzo[4,5]thieno[2,3-d]pyrimidin-2-yl]-1-(4-hydroxy-piperidin-1-yl)-ethanone] and CN(c1nc(CC(=O)N2CCC(O)C2)nc2sc3c(c12)CCCC3)C1CC1 (centres unmarked) [Compound 29, 2-[4-(Cyclopropyl-methyl-amino)-5,6,7,8-tetrahydro-benzo[4,5]thieno[2,3-d]pyrimidin-2-yl]-1-(3-hydroxy-pyrrolidin-1-yl)-ethanone] cannot be ordered by IC50: under 1000 nM for the first, under 1000 nM for the second.

CC(=O)N1CCN(C(=O)Cc2nc(N(C)C3CC3)c3c4c(sc3n2)CCCC4)CC1 [Compound 13, 1-(4-Acetyl-piperazin-1-yl)-2-[4-(Cyclopropyl-methyl-amino)-5,6,7,8-tetrahydro-[1]benzothieno[2,3-d]pyrimidin-2-yl]-ethanone] and CN1CCN(C(=O)Cc2nc(N(C)C3CC3)c3c4c(sc3n2)CCCC4)CC1 [Compound 10, 2-[4-(Cyclopropyl-methyl-amino)-5,6,7,8-tetrahydro-benzo[4,5]thieno[2,3-d]pyrimidin-2-yl]-1-(4-methyl-piperazin-1-yl)-ethanone] cannot be ordered by IC50: under 1000 nM for the first, under 1000 nM for the second.

CCOC(=O)Cc1nc(N(C)C(C)C)c2c3c(sc2n1)CCCC3 [Compound 41, [4-(Isopropyl-methyl-amino)-5,6,7,8-tetrahydro-benzo[4,5]thieno[2,3-d]pyrimidin-2-yl]-acetic acid ethyl ester] and CC(C)N(C)c1nc(CC(=O)O)nc2sc3c(c12)CCCC3 [Compound 46, [4-(Isopropyl-methyl-amino)-5,6,7,8-tetrahydro-benzo[4,5]thieno[2,3-d]pyrimidin-2-yl]-acetic acid] cannot be ordered by IC50: over 5000 nM for the first, over 5000 nM for the second.

CN(c1nc(CC(=O)N2CC[C@@H](C(C)(C)O)C2)nc2sc3c(c12)CCCC3)C1CC1 [Compound 37, 2-[4-(Cyclopropyl-methyl-amino)-5,6,7,8-tetrahydro-benzo[4,5]thieno[2,3-d]pyrimidin-2-yl]-1-[(R)-3-(1-hydroxy-1-methyl-ethyl)-pyrrolidin-1-yl]-ethanone] and CN(c1nc(CC(=O)N2CCC(S(C)(=O)=O)C2)nc2sc3c(c12)CCCC3)C1CC1 (centres unmarked) [Compound 25, 2-[4-(Cyclopropyl-methyl-amino)-5,6,7,8-tetrahydro-benzo[4,5]thieno[2,3-d]pyrimidin-2yl]-1-(3-methanesulfonyl-pyrrolidin-1-yl)-ethanone] cannot be ordered by IC50: under 1000 nM for the first, under 1000 nM for the second.

CCNC(=O)Cc1nc(N(C)C2CC2)c2c3c(sc2n1)CCCC3 [Compound 34, 2-[4-(Cyclopropyl-methyl-amino)-5,67,8-tetrahydro-benzo[4,5]thieno[2,3-d]pyrimidin-2-yl]-N-ethyl-acetamide] and CC(C)NC(=O)Cc1nc(N(C)C2CC2)c2c3c(sc2n1)CCCC3 [Compound 28, 2-[4-(Cyclopropyl-methyl-amino)-5,6,7,8-tetrahydro-benzo[4,5]thieno[2,3-d]pyrimidin-2-yl]-N-isopropyl-acetamide] fall in the same range of IC50: 1000 to 5000 nM for the first, 1000 to 5000 nM for the second.

Compared with CN(c1nc(CC(=O)NCCc2ccncc2)nc2sc3c(c12)CCCC3)C1CC1 [Compound 22], CN(c1nc(CC(=O)NCc2ccccn2)nc2sc3c(c12)CCCC3)C1CC1 [Compound 18] is lower in IC50: over 5000 nM for the first, 1000 to 5000 nM for the second.

CN(c1nc(CC(=O)N2CCC(N3CCOCC3)CC2)nc2sc3c(c12)CCCC3)C1CC1 [Compound 32, 2-[4-(Cyclopropyl-methyl-amino)-5,6,7,8-tetrahydro-benzo[4,5]thieno[2,3-d]pyrimidin-2-yl]-1-(4-morpholin-4-yl-piperidin-1-yl)-ethanone] and CN(c1nc(CC(=O)N2CCC2)nc2sc3c(c12)CCCC3)C1CC1 [Compound 15, 1-(Azetidin-1-yl)-2-(4-(cyclopropyl(methyl)amino)-5,6,7,8-tetrahydrobenzo[4,5]thieno[2,3-d]pyrimidin-2-yl)ethanone] cannot be ordered by IC50: under 1000 nM for the first, under 1000 nM for the second.

First: CN(c1nc(CCC(=O)O)nc2sc3c(c12)CCCC3)C1CC1 [Compound 47, 3-[4-(Cyclopropyl-methyl-amino)-5,6,7,8-tetrahydro-[1]benzothiopheno[2,3-d]pyrimidin-2-yl]-propionic acid]
Second: CN(c1nc(CC(=O)O)nc2sc3c(c12)CCCCC3)C1CC1 [Compound 52, [4-(Cyclopropyl-methyl-amino)-6,7,8,9-tetrahydro-5H-10-thia-1,3-diazabenz[a]azulen-2-yl]-acetic acid]
The IC50 of the first is lower: 1000 to 5000 nM for the first, over 5000 nM for the second. The first is the more potent here.

CN(c1nc(CC(=O)N2CCCC2)nc2sc3c(c12)CCCC3)C1CC1 [Compound 6, 2-[4-(Cyclopropyl-methyl-amino)-5,6,7,8-tetrahydro-benzo[4,5]thieno[2,3-d]pyrimidin-2-yl]-1-pyrrolidin-1-yl-ethanone] and CN(c1nc(CC(=O)N2CC(O)C2)nc2sc3c(c12)CCCC3)C1CC1 [Compound 12, 2-(4-(Cyclopropyl(methyl)amino)-5,6,7,8-tetrahydrobenzo[4,5]thieno[2,3-d]pyrimidin-2-yl)-1-(3-hydroxyazetidin-1-yl)ethanone] cannot be ordered by IC50: under 1000 nM for the first, under 1000 nM for the second.

CN(C)C(=O)Cc1nc(N(C)C2CC2)c2c3c(sc2n1)CCCCC3 [Compound 53, 2-[4-(Cyclopropyl-methyl-amino)-6,7,8,9-tetrahydro-5H-10-thia-1,3-diaza-benz[a]azulen-2-yl]-N,N-dimethyl-acetamide] and CN(C)C(=O)CCc1nc(N(C)C2CC2)c2c3c(sc2n1)CCCC3 [Compound 48, 3-[4-(Cyclopropyl-methyl-amino)-5,6,7,8-tetrahydro-[1]benzothiopheno[2,3-d]pyrimidin-2-yl]-N,N-dimethyl-propionamide] fall in the same range of IC50: 1000 to 5000 nM for the first, 1000 to 5000 nM for the second.

CN(c1nc(CC(=O)N2CCCC2C(N)=O)nc2sc3c(c12)CCCC3)C1CC1 (centres unmarked) [Compound 38, 1-(2-(4-(Cyclopropyl(methyl)amino)-5,6,7,8-tetrahydrobenzo[4,5]thieno[2,3-d]pyrimidin-2-yl)acetyl)pyrrolidine-2-carboxamide] and CN(c1nc(CC(N)=O)nc2sc3c(c12)CCCC3)C1CC1 [Compound 5, 2-(4-(Cyclopropyl(methyl)amino)-5,6,7,8-tetrahydrobenzo[4,5]thieno[2,3-d]pyrimidin-2-yl)acetamide] cannot be ordered by IC50: under 1000 nM for the first, under 1000 nM for the second.

First: CN(C)C(=O)Cc1nc(N(C)C)c2c3c(sc2n1)CCCC3 [Compound 43, 2-(4-Dimethylamino-5,6,7,8-tetrahydro-benzo[4,5]thieno[2,3-d]pyrimidin-2-yl)-N,N-dimethyl-acetamide]
Second: CN(C)C(=O)Cc1nc(N2CCCC2)c2c3c(sc2n1)CCCC3 [Compound 42, N,N-Dimethyl-2-(4-pyrrolidin-1-yl-5,6,7,8-tetrahydro-benzo[4,5]thieno[2,3-d]pyrimidin-2-yl)-acetamide]
The IC50 of the first is lower: 1000 to 5000 nM for the first, over 5000 nM for the second.

With CN(c1nc(CO)nc2sc3c(c12)CCCC3)C1CC1 [Compound 49, [4-(Cyclopropyl-methyl-amino)-5,6,7,8-tetrahydro-benzo[4,5]thieno[2,3-d]pyrimidin-2-yl]-methanol] the IC50 was 1000 to 5000 nM.
